In the experiment the target is T1, CB1 receptor (Homo sapiens, UniProt P21554).
T1 construct: expressed in transfected cells
Put plainly: [35S]-GTPγS binding assay on membranes from cells stably transfected with the CB1 gene, inhibition of agonist CP55940 (EC80). The class given is biochemical. The following applies: half maximal inhibition of GTPγS binding, EC80 concentration of CP55940. The protocol:
10 μg of membranes prepared from cells stably transfected with the CB1 gene were suspended in 200 μl of 100 mM NaCl, 5 mM MgCl2, 1 mM EDTA, 50 mM HEPES (pH 7.4), 1 mM DTT, 0.1% BSA and 100 μM GDP. To this was added an EC80 concentration of agonist (CP55940), the required concentration of test compound and 0.1 μCi [^35S]-GTPγS. The reaction was allowed to proceed at 30° C. for 45 min. Samples were then transferred on to GF/B filters using a cell harvester and washed with wash buffer (50 mM Tris (pH 7.4), 5 mM MgCl2, 50 mM NaCl). Filters were then covered with scintilant and counted for the amount of [^35S]-GTPγS retained by the filter.
Activity is measured in the absence of all ligands (minimum activity) or in the presence of an EC80 concentration of CP55940 (maximum activity). These activities are set as 0% and 100% activity respectively. At various concentrations of novel ligand, activity is calculated as a percentage of the maximum activity and plotted. The data are fitted using the equation y=A+((B−A)/1+((C/x)UD)) and the IC50 value determined as the concentration required to give half maximal inhibition of GTPγS binding under the conditions used.
(In general: GTPγS resists hydrolysis and so accumulates on activated G proteins.)

This note sets out measurements from patent publication US20080146614A1, “Therapeutic Agents” (priority 2004, published 2008).

T1 sequence (P21554 whole entry): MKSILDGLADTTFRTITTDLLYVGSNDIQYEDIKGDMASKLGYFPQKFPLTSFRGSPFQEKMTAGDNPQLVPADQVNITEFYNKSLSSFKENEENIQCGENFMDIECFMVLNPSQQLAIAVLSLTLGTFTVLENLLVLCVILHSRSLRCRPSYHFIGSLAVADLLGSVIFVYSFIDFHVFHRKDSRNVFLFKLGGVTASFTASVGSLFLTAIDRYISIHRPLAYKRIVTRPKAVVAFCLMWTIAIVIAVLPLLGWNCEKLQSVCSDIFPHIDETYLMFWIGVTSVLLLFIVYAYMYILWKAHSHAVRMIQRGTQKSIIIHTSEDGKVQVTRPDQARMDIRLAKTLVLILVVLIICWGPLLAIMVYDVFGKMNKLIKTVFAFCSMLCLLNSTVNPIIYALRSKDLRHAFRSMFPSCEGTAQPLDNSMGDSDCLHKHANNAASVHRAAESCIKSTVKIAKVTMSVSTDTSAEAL

For orientation: IC50 means the point on the concentration scale where inhibition reaches its midpoint. For the molecule `CCCS(=O)(=O)Oc1ccc(-c2c(CO)c(C(=O)NN3CCCCC3)nn2-c2ccc(Cl)cc2Cl)cc1` [Example 1, Propane-1-sulfonic acid 4-[2-(2,4-dichlorophenyl)-4-hydroxymethyl-5-(piperidin-1-ylcarbamoyl)-2H-pyrazol-3-yl]-phenyl ester], the half-maximal inhibitory concentration (IC50) worked out at 3.3 nM.
